# In patent US20260374818A1, “CATIONIC PEPTIDES WITH BROAD SPECTRUM ACTIVITY” (priority 2023, published 2026):
# Where a SMILES comes first, the peptide text is derived from it. [ ]: non-standard residue; d: D form.
# What was measured:
# [1] = system: P. aeruginosa PAO1; assay: Biofilm inhibition (at least 80%), P. aeruginosa; format: cell-based, Pseudomonas aeruginosa; conditions: n = 4, BM2 minimal media, 18-24 hours, crystal violet
# [2] = system: Acinetobacter baumannii Ab5075; assay: Biofilm inhibition (at least 80%), A. baumannii; format: cell-based; conditions: n = 4, BM2 minimal media, 18-24 hours, crystal violet
# [3] = system: red blood cells; assay: Hemolysis; format: cell-based, human; conditions: 4 hours
# Experimental: Hemolysis: Peptide induced hemolysis was evaluated according to methods described previously [Hilchie, A. L., et al. (2016). Mastoparan is a membranolytic anti-cancer peptide that works synergistically with gemcitabine in a mouse model of mammary carcinoma. Biochimica Et Biophysica Acta, 1858(12), 3195-3204]. Briefly, red blood cells were obtained, with human ethics approval, from the blood of healthy volunteers collected in a sodium heparin tube and then rinsed three times in PBS, centrifuging between washes, to obtain the hematocrit (100% RBC). A 2.5% RBCs suspension was exposed to peptide at varying concentrations and incubated at 37 C in a 5% CO2 humidified atmosphere for 4 hours. Supernatants were collected following centrifugation (1100 rpm) and transferred to a flat bottom microtitre plate. The absorbance (490 nm) of each supernatant was measured on a BioTek Epoch Microplate Spectrophotometer. Percent hemolysis was calculated by comparing the absorbance arising from peptide treated cells to RBCs treated with […] (0% hemolysis) or lysed with 1% Triton X-100 (100% hemolysis).
# [4] = system: MRSA USA300; assay: Biofilm inhibition (at least 80%), MRSA; format: cell-based, methicillin resistant Staphylococcus aureus; conditions: n = 4, 10% TSB + 0.1% glucose, 18-24 hours, crystal violet
# [5] = system: 3-day-old oral plaque biofilms; assay: Oral plaque biofilm model, brief (1 minute) exposure, dead cell volume; format: cell-based; conditions: 10 μg/mL, 1 minute (FIG. 11)
# [6] = system: Enterococcus faecium #2-1; assay: Biofilm inhibition (at least 80%), E. faecium; format: cell-based; conditions: E. faecium #2-1; n = 3; TSB + 1% glucose; 48 hours; crystal violet
# [7] = system: Klebsiella pneumonia KPLN649; assay: Biofilm inhibition (at least 80%), K. pneumonia; format: cell-based; conditions: K. pneumoniae KPLN649; n = 3; BM2 minimal media; 48 hours; crystal violet
# [8] = system: Enterobacter cloacae 218R1; assay: Biofilm inhibition (at least 80%), E. cloacae; format: cell-based; conditions: E. cloacae 218R1; n = 3; BM2 minimal media; 18-24 hours; crystal violet
# [9] = system: 3-day-old oral plaque (multispecies) biofilms; assay: Oral plaque biofilm model, long-term (1-3 days) exposure, dead cell volume; format: cell-based; conditions: 10 μg/mL, 1 or 3 days (FIG. 10)
# [10] = system: ESKAPEE Pathogens
# [11] = system: E. coli O157:H7; assay: Biofilm inhibition (at least 80%), E. coli; format: cell-based, Escherichia coli; conditions: n = 3, BM2 minimal media, 18-24 hours, crystal violet
# [12] = system: peripheral blood mononuclear cells (PBMCs); assay: Cytotoxicity (LDH release), PBMCs
smiles,measurement,setting,value
"CC[C@@H](C)[C@@H](NC(=O)[C@@H](C)NC(=O)[C@@H](CCCNC(=N)N)NC(=O)[C@@H](Cc1c[nH]c2ccccc12)NC(=O)[C@@H](CCC(N)=O)NC(=O)[C@H](N)C(C)C)C(=O)N[C@H](CCCNC(=N)N)C(=O)N[C@@H](C(=O)N[C@@H](C(=O)N[C@@H](C(=O)N[C@@H](C(=O)N[C@H](CCCNC(=N)N)C(N)=O)[C@H](C)CC)C(C)C)[C@H](C)CC)C(C)C [AB107-D, vqwrairvivir-NH2] (H-[dV][dQ][dW][dR][dA][dI][dR][dV][dI][dV][dI][dR]-NH2)",Peptide/Antibiotic Concentration where at least 80% of biofilm growth was inhibited,[1],4 µg/mL
same,Peptide/Antibiotic Concentration where at least 80% of biofilm growth was inhibited,[2],1 µg/mL
same,Hemolysis,[3],non-toxic at all concentrations evaluated
same,Peptide/Antibiotic Concentration where at least 80% of biofilm growth was inhibited,[4],1 µg/mL
same,"Killing of oral plaque biofilms, brief exposure",[5],comparable to or better than peptide DJK-5
same,Peptide/Antibiotic Concentration where at least 80% of biofilm growth was inhibited,[6],1 µg/mL
same,Peptide/Antibiotic Concentration where at least 80% of biofilm growth was inhibited,[7],4 µg/mL
same,Peptide/Antibiotic Concentration where at least 80% of biofilm growth was inhibited,[8],1 µg/mL
same,"Killing of oral plaque biofilms, long-term exposure",[9],significantly enhanced killing of the oral plaque biofilms
same,"Broad spectrum antibiofilm activity, more active than DJK5",[10],2-4 fold
same,Peptide/Antibiotic Concentration where at least 80% of biofilm growth was inhibited,[11],1 µg/mL
same,Cytotoxicity (LDH),[12],non-toxic at all concentrations evaluated
